In patent publication US20090005444A1, “USE OF PROPOFOL PRODRUGS FOR TREATING ALCOHOL WITHDRAWAL, CENTRAL PAIN, ANXIETY OR PRURITUS” (XenoPort, Inc., priority 2007, published 2009):

How the values were obtained:
[1] = test system: male beagle dogs; assay: Acute toxicity study, single oral dose in dogs; assay type: in vivo
Method: Acute toxicity studies were also performed by orally administering a single dose of compound (2) formulated in water to groups of male beagle dogs at doses from about 25 mg-eq/kg to about 150 mg-eq/kg propofol.

[2] = test system: rats; assay: Acute toxicity study, single oral dose in rats; assay type: in vivo
Method: Acute toxicity studies in rats were undertaken to assess the tolerance of a single oral dose of compound (2) formulated in water. […] Complete recovery from hypoactivity, sedation, and anesthesia occurred in all rats within about 8 hours after dosing. Doses above about 1552 mg-eq/kg (about 800 mg-eq/kg of propofol) were not tested.

[3] = test system: male rats; assay: Multiple dose study in rats, oral once a day for five days; assay type: in vivo; settings: oral gavage once a day for five days, 49 to 97 mg-eq/kg propofol
Method: Multiple dose studies in rats were performed by orally administering compound (2) formulated in water to groups of male rats at doses of 49 mg-eq/kg to 97 mg-eq/kg propofol for a period of five days, by oral gavages administered once a day.

[4] = oral dosing in rats; cited from earlier work
[5] = test system: pruritus; settings: subhypnotic doses; cholestasis and spinal morphine administration; cited from earlier work
[6] = test system: central pain; settings: subanesthetic dose 0.2 mg/kg IV; cited from earlier work
[7] = test system: anxiety; settings: animal studies; cited from earlier work
[8] = test system: delirium tremens; settings: sedative and subsedative doses of propofol; cited from earlier work
[9] = rats, single oral dose about 49 to about 388 mg-eq/kg propofol
[10] = rats, single oral dose about 582 to about 970 mg-eq/kg propofol
[11] = rats, single oral dose about 1164 to about 1552 mg-eq/kg propofol

## CC(C)c1cccc(C(C)C)c1OC(=O)OC[C@H](N)C(=O)O [compound (2), (S)-2-amino-3-(2,6-diisopropyl-phenoxycarbonyloxy)-propanoic acid]
[1]; formulated in water, about 25 to about 150 mg-eq/kg propofol
  tolerance of a single oral dose: well tolerated
[1]; single oral dose about 25 to about 150 mg-eq/kg propofol
  sedation or anesthesia: No sedation or anesthesia was observed
[2]; all rats, after single oral dose
  time to complete recovery from hypoactivity, sedation, and anesthesia: ≤ 8 h
[2]; rats, formulated in water, about 49 to about 1552 mg-eq/kg propofol
  tolerance of a single oral dose: well tolerated
[2]; [9]
  onset of transient hypoactivity after dose: ≤ 30 min
  transient hypoactivity maintained, time post dose: up to 4 hours
[2]; [10]
  onset of sedation after dosing: ≤ 1.5 h
  sedation continued, time post dose: up to 4 hours
[2]; [11]
  anesthesia continued, time post dose: up to 2 hours
  onset of anesthesia after dosing: ≤ 1 h
[3]
  adverse effects: No adverse effects were observed
  sedation or anesthesia: No sedation or anesthesia was observed
  tolerance of multiple oral doses: well tolerated

## CC(C)c1cccc(C(C)C)c1O [propofol, 2,6-diisopropylphenol]
[4]
  administered drug undergoing first pass metabolism: approximately 90%
[5]
  effect on pruritus: effective in controlling pruritus associated with cholestasis and spinal morphine administration
[6]
  effect on SCIP and CPSP central pain: effective in reducing both SCIP and CPSP central pain
[7]
  anxiolytic effect: exerts an anxiolytic effect independent of any sedative effect
[8]
  effect on symptoms of delirium tremens: effective in reducing the symptoms of delirium tremens
